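Step 1: Grow cells in 96-well plates. Step 2: Expose to compound for 48 hours at 5 concentrations. Step 3: Interpolate endpoints linearly; if unreached, use highest concentration. At the TGI there is no net growth.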
Key:
Experiment in all cases: NCI tumour cell line growth inhibition, 48 h
NCI-H226 lung = tested on: NCI-H226 lung
SF-295 CNS = tested on: SF-295 CNS
T-47D breast = tested on: T-47D breast
NCI-H460 lung = tested on: NCI-H460 lung
A549 NSCLC = tested on: A549 NSCLC
HL-60(TB) leukemia = tested on: HL-60(TB) leukemia
BT-549 breast = tested on: BT-549 breast
SK-MEL-2 melanoma = tested on: SK-MEL-2 melanoma
MDA-N = tested on: MDA-N
MOLT-4 leukemia = tested on: MOLT-4 leukemia

Measured: TGI

Cc1ccc(S(=O)(=O)N/N=C2/CC3CCC4CC2CC34)cc1 (stereo not given)
> 100 µM: all assays above

From PubChem BioAssay (NCI)
